In patent US20240246977A1, “DEGRADATION OF BRUTON'S TYROSINE KINASE (BTK) BY CONJUGATION OF BTK INHIBITORS WITH E3 LIGASE LIGAND AND METHOD OF USE” (BeiGene Switzerland GmbH, priority 2021, published 2024):

What was measured:
BTK = BTK (Homo sapiens, UniProt Q06187); assay: BTK cell degradation in TMD-8 cells, HTRF assay; type: cell-based; design: endogenous in cells; host or cells: TMD-8 cells; conditions: 6 h treatment, IC50 (DC50) of BTK degradation
How it was run: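 TMD-8 cells treated 6 h with 8-dose series (6-fold dilutions, 0.2% DMSO final), then lysed and BTK quantified by HTRF (337/665/620 nm) after overnight antibody incubation at room temperature. Degradation normalized to DMSO high and low controls; DC50 and Dmax from four-parameter fit.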

HEK-293 cells = assay: HEK-293 cytotoxicity detection (CellTiter-Glo); type: cell-based; conditions: Homo sapiens, 72 h, 72 h incubation, CellTiter-Glo luminescence, read-out: HEK293
How it was run: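 HEK-293 cells exposed 72 h to 8 compounds doses (4-fold dilutions, top stock 5 mM at 500×) in 0.2% DMSO. Viability by CellTiter-Glo luminescence; inhibition normalised to DMSO high control and low control, IC50 from four-parameter curve fit.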

Chain of BTK (Q06187 whole entry): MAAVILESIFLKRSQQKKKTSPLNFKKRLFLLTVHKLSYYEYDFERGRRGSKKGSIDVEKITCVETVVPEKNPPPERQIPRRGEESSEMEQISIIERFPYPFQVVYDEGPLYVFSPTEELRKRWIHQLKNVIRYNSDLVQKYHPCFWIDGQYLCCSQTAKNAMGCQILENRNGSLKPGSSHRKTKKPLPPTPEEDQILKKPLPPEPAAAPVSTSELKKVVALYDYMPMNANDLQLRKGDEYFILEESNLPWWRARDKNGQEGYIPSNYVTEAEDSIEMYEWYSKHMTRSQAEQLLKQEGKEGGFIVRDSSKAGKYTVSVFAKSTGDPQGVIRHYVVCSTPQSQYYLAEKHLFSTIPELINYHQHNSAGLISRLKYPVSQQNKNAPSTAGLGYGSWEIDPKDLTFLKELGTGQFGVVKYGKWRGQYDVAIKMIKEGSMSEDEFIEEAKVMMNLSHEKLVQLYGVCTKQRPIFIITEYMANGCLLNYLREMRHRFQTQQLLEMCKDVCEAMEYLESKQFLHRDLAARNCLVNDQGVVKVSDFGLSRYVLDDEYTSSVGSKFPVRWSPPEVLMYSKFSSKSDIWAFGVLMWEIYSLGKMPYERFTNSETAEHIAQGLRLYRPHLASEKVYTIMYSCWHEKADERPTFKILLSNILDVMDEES

SMILES	DC50 (BTK) [nM]	IC50 (HEK-293 cells) [nM]
Cc1c(C(=O)Nc2nc(C(F)(F)F)n[nH]2)ccc(-c2nn3c(c2C(N)=O)Nc2ccc(N4CCN(CC5CCN(c6ccc(N7CCC(=O)NC7=O)cc6)CC5)CC4)cc2CC3)c1F [Example B85, 7-(4-((1-(4-(2,4-dioxotetrahydropyrimidin-1(2H)-yl)phenyl)piperidin-4-yl)methyl)piperazin-1-yl)-2-(2-fluoro-3-methyl-4-((3-(trifluoromethyl)-1H-1,2,4-triazol-5-yl)carbamoyl)phenyl)-9,10-dihydro-4H-benzo[d]pyrazolo[1,5-a][1,3]diazepine-3-carboxamide]	1.87	> 10000
Cc1c(C(=O)Nc2cc(C)n(C)n2)ccc(-c2nn3c(c2C(N)=O)Nc2ccc(N4CCN(CC5CCN(c6ccc(N7CCC(=O)NC7=O)cc6)CC5)CC4)cc2CC3)c1F [Example B86, 2-(4-((1,5-dimethyl-1H-pyrazol-3-yl)carbamoyl)-2-fluoro-3-methylphenyl)-7-(4-((1-(4-(2,4-dioxotetrahydropyrimidin-1(2H)-yl)phenyl)piperidin-4-yl)methyl)piperazin-1-yl)-9,10-dihydro-4H-benzo[d]pyrazolo[1,5-a][1,3]diazepine-3-carboxamide]	4.37	> 10000
Cc1c(C(=O)Nc2cn(C)cn2)ccc(-c2nn3c(c2C(N)=O)Nc2ccc(N4CCN(CC5CCN(c6ccc(N7CCC(=O)NC7=O)cc6)CC5)CC4)cc2CC3)c1F [Example B87, 7-(4-((1-(4-(2,4-dioxotetrahydropyrimidin-1(2H)-yl)phenyl)piperidin-4-yl)methyl)piperazin-1-yl)-2-(2-fluoro-3-methyl-4-((1-methyl-1H-imidazol-4-yl)carbamoyl)phenyl)-9,10-dihydro-4H-benzo[d]pyrazolo[1,5-a][1,3]diazepine-3-carboxamide]	0.591	> 10000
Cc1c(C(=O)Nc2cn(C)cn2)ccc(-c2nn3c(c2C(N)=O)Nc2ccc(N4CCN(CCc5cc(F)c(C6CCC(=O)NC6=O)c(F)c5)CC4)cc2CC3)c1F (stereo not drawn) [Example B88, 7-(4-(4-(2,6-dioxopiperidin-3-yl)-3,5-difluorophenethyl)piperazin-1-yl)-2-(2-fluoro-3-methyl-4-((1-methyl-1H-imidazol-4-yl)carbamoyl)phenyl)-9,10-dihydro-4H-benzo[d]pyrazolo[1,5-a][1,3]diazepine-3-carboxamide]	1.63	> 10000
Cc1c(C(=O)Nc2cn(C)cn2)ccc(-c2nn3c(c2C(N)=O)Nc2ccc(N4CCN(CCc5cccc6c5oc(=O)n6C5CCC(=O)NC5=O)CC4)cc2CC3)c1F (stereo not drawn) [Example B90, 7-(4-(2-(3-(2,6-dioxopiperidin-3-yl)-2-oxo-2,3-dihydrobenzo[d]oxazol-7-yl)ethyl)piperazin-1-yl)-2-(2-fluoro-3-methyl-4-((1-methyl-1H-imidazol-4-yl)carbamoyl)phenyl)-9,10-dihydro-4H-benzo[d]pyrazolo[1,5-a][1,3]diazepine-3-carboxamide]	0.706	> 10000
Cc1c(C(=O)Nc2cn(C)cn2)ccc(-c2nn3c(c2C(N)=O)Nc2ccc(N4CCN(C(=O)C5CCN(c6ccc(N7CCC(=O)NC7=O)cc6)CC5)CC4)cc2CC3)c1F [Example B91, 7-(4-(1-(4-(2,4-dioxotetrahydropyrimidin-1(2H)-yl)phenyl)piperidine-4-carbonyl)piperazin-1-yl)-2-(2-fluoro-3-methyl-4-((1-methyl-1H-imidazol-4-yl)carbamoyl)phenyl)-9,10-dihydro-4H-benzo[d]pyrazolo[1,5-a][1,3]diazepine-3-arboxamide]	1.36	> 10000
Cc1c(C(=O)Nc2cn(C)cn2)ccc(-c2nn3c(c2C(N)=O)Nc2ccc(N4CCN(C[C@H]5CCN(c6ccc(N7CCC(=O)NC7=O)cc6)C5)CC4)cc2CC3)c1F [Example B92, (R)-7-(4-((1-(4-(2,4-dioxotetrahydropyrimidin-1(2H)-yl)phenyl)pyrrolidin-3-yl)methyl)piperazin-1-yl)-2-(2-fluoro-3-methyl-4-((1-methyl-1H-imidazol-4-yl)carbamoyl)phenyl)-9,10-dihydro-4H-benzo[d]pyrazolo[1,5-a][1,3]diazepine-3-carboxamide]	1.86	> 10000
Cc1c(C(=O)Nc2ncnn2C)ccc(-c2nn3c(c2C(N)=O)Nc2ccc(N4CCN(CC5CCN(c6ccc(N7CCC(=O)NC7=O)cc6)CC5)CC4)cc2CC3)c1F [Example B93, 7-(4-((1-(4-(2,4-dioxotetrahydropyrimidin-1(2H)-yl)phenyl)piperidin-4-yl)methyl)piperazin-1-yl)-2-(2-fluoro-3-methyl-4-((1-methyl-1H-1,2,4-triazol-5-yl)carbamoyl)phenyl)-9,10-dihydro-4H-benzo[d]pyrazolo[1,5-a][1,3]diazepine-3-carboxamide]	3.77	> 10000
Cc1c(C(=O)Nc2cscn2)ccc(-c2nn3c(c2C(N)=O)Nc2ccc(N4CCN(CC5CCN(c6ccc(N7CCC(=O)NC7=O)cc6)CC5)CC4)cc2CC3)c1F [Example B94, 7-(4-((1-(4-(2,4-dioxotetrahydropyrimidin-1(2H)-yl)phenyl)piperidin-4-yl)methyl)piperazin-1-yl)-2-(2-fluoro-3-methyl-4-(thiazol-4-ylcarbamoyl)phenyl)-9,10-dihydro-4H-benzo[d]pyrazolo[1,5-a][1,3]diazepine-3-carboxamide]	0.378	> 10000
Cc1c(C(=O)Nc2cscn2)ccc(-c2nn3c(c2C(N)=O)Nc2ccc(N4CCN(CCc5cccc6c5oc(=O)n6C5CCC(=O)NC5=O)CC4)cc2CC3)c1F (stereo not drawn) [Example B96, 7-(4-(2-(3-(2,6-dioxopiperidin-3-yl)-2-oxo-2,3-dihydrobenzo[d]oxazol-7-yl)ethyl)piperazin-1-yl)-2-(2-fluoro-3-methyl-4-(thiazol-4-ylcarbamoyl)phenyl)-9,10-dihydro-4H-benzo[d]pyrazolo[1,5-a][1,3]diazepine-3-carboxamide]	0.586	116
Cc1c(C(=O)Nc2cscn2)ccc(-c2nn3c(c2C(N)=O)Nc2ccc(N4CCN(CC5CN(c6ccc(N7CCC(=O)NC7=O)cc6)C5)CC4)cc2CC3)c1F [Example B97, 7-(4-((1-(4-(2,4-dioxotetrahydropyrimidin-1(2H)-yl)phenyl)azetidin-3-yl)methyl)piperazin-1-yl)-2-(2-fluoro-3-methyl-4-(thiazol-4-ylcarbamoyl)phenyl)-9,10-dihydro-4H-benzo[d]pyrazolo[1,5-a][1,3]diazepine-3-carboxamide]	2.11	> 10000
Cc1c(C(=O)Nc2cscn2)ccc(-c2nn3c(c2C(N)=O)Nc2ccc(N4CCN(CC5CCN(c6ccc(CN7CCC(=O)NC7=O)cc6)CC5)CC4)cc2CC3)c1F [Example B98, 7-(4-((1-(4-((2,4-dioxotetrahydropyrimidin-1(2H)-yl)methyl)phenyl)piperidin-4-yl)methyl)piperazin-1-yl)-2-(2-fluoro-3-methyl-4-(thiazol-4-ylcarbamoyl)phenyl)-9,10-dihydro-4H-benzo[d]pyrazolo[1,5-a][1,3]diazepine-3-carboxamide]	1.1	> 10000
